# Reference: US7012060B1, “TNF receptor and steroid hormone in a combined therapy” (priority 1995, dated 2006)
# Marks after values point to notes of the source that are not given here.
# Tested on: septic shock induced by LPS + D-Galactosamine, in mice
# Assay: LPS+D-Galactosamine-induced septic shock model
# Format: in vivo, SPF female BALB/c inbred mice
# Procedure: The experiments were carried out in vivo on mice. The septic shock was induced by an i.p. administration of a mixture of LPS (0.1 μg/mouse) and D-Galactosamine (18 mg/mouse).
# The treatment schedule for r-hTBP-1 based on repeated administrations (the total dose was divided into 4 administrations given at time 0 and […] and 24 hours after), was adopted. CHO r-hTBP-1 was tested, alone or in combination with DHEA, at dose levels of 62.5 and 125 μg/mouse (total dose).
# DHEA was tested both in a single administration injected i.p. one hour before and contemporaneously to the septic shock-inducing agent at doses encompassed between 100 and 2.000 μg/mouse and in repeated treatment with the total dose (250 μg/mouse) divided into 4 injections given within 24 hours.
# The above treatment schedules of DHEA (doses from 250 to 1,500 μl g/mouse) were followed also in combination with r-hTBP-1 which was tested at the total dose varying from 62.5 to 125 μg/mouse (divided into 4 administrations).
# SPF female BALB/c inbred mice, 6–8 weeks (about 18–20 g b.w.), from Charles River were used throughout the whole study after an acclimatisation period of at least 7 days.
# Unless otherwise specified, in all the experiments the mice were randomly divided into groups of 10 animals each.
# Both substances were dissolved in saline. The mixture of LPS (0.1 μg/mouse) and D-Galactosamine (18 mg/mouse) was prepared by mixing equal volumes of these substances. The mixture was subsequently injected to animals by the i.p. route. This dose was selected under precious experiments as that inducing around 80% mortality calculated as the number of dead vs. total number of mice for each croup. The lethality was monitored after 24, 48, 72 and 96 hours and at day 7 post-treatment.
# The drug was diluted in saline and injected by repeated administrations, i.e. i.v. immediately before the inoculum of LPS plus D-Galactosamine and s.c. 3, 6 and 24 hours later.
# The effects of DHEA, alone or in combination with r-hTBP-1, were assayed after single i.p. administrations at different times in respect to LPS+D-Galactosamine injection; in particular, it was administered 1 hour before and contemporaneously to the septic shock-inducing agent.
# A repeated treatment schedule was also investigated in which DHEA was administered at time 0 (septic shock induction) and 3, 6 and 24 hours later. DHEA was initially vehicled in a mixture of 2.5% alcohol and 10% rabbit serum in saline. To improve the solubility and standardise the preparation, the steroid was successively dispersed in a mixture of 2.5% alcohol and 10% phospholipid emulsion in saline.
# The primary end point was the survival rate at 48 hours after induction of septic shock. The comparison of the effects of each treatment group vs. controls and among treatment groups was effected by Fisher's exact test, one-tailed. The same comparison was also performed at the other time points. The results in each treatment group were expressed as percent survival.
# In all the experiments, percent survival values were calculated using the survival Tables for the follow up studies (Armitage P. Cap. XIV. Tavole di sopravvivenza in Statistica Medica, Feltrinelli, Milano). The χ^2-test was applied to each observation time by comparing the DHEA+r-hTBP-1 groups to the other groups.
structure (smiles),measurement,setting,value
"C[C@]12CC[C@H](O)CC1=CC[C@@H]1[C@@H]2CC[C@]2(C)C(=O)CC[C@@H]12 [DHEA, Dehydroepiandrosterone]",% cumulative survival,"DHEA 1500 μg/mouse i.p. 1 hour before LPS + D-Gal, saline 10% rabbit serum, 48 hrs, 2nd exp",70^a %
same,% cumulative survival,"DHEA 1500 μg/mouse i.p. 1 hour before LPS + D-Gal, saline 10% rabbit serum, 72 hrs, 2nd exp",50%
same,% cumulative survival,"DHEA 1500 μg/mouse i.p. 1 hour before LPS + D-Gal, saline 10% rabbit serum, 96 hrs, 2nd exp",50%
same,% cumulative survival,"DHEA 2000 μg/mouse i.p. 1 hour before LPS + D-Gal, saline 10% rabbit serum, 24 hrs, 1st exp",100^a %
same,% cumulative survival,"DHEA 2000 μg/mouse i.p. 1 hour before LPS + D-Gal, saline 10% rabbit serum, 24 hrs, 2nd exp",100^a %
same,% cumulative survival,"DHEA 2000 μg/mouse i.p. 1 hour before LPS + D-Gal, saline 10% rabbit serum, 48 hrs, 1st exp",100^a %
same,% cumulative survival,"DHEA 2000 μg/mouse i.p. 1 hour before LPS + D-Gal, saline 10% rabbit serum, 48 hrs, 2nd exp",100^a %
same,% cumulative survival,"DHEA 2000 μg/mouse i.p. 1 hour before LPS + D-Gal, saline 10% rabbit serum, 72 hrs, 1st exp",100^a %
same,% cumulative survival,"DHEA 2000 μg/mouse i.p. 1 hour before LPS + D-Gal, saline 10% rabbit serum, 72 hrs, 2nd exp",100^a %
same,% cumulative survival,"DHEA 2000 μg/mouse i.p. 1 hour before LPS + D-Gal, saline 10% rabbit serum, 96 hrs, 1st exp",100^a %
same,% cumulative survival,"DHEA 2000 μg/mouse i.p. 1 hour before LPS + D-Gal, saline 10% rabbit serum, 96 hrs, 2nd exp",100^a %
same,survival,DHEA 1.000 and 1.500 μg/mouse alone,0–40%
same,protective effects,"DHEA at doses higher than 1.000 μg/mouse, 1 hour before LPS+D-Galactosamine",statistically significant protective effects
same,protective effects,"DHEA up to 1.000 μg/mouse, 1 hour before LPS+D-Galactosamine",No protective effects
same,% cumulative survival,"Table 2, DHEA 1000 μg/mouse i.p. 1 hour before LPS + D-Gal, saline 10% rabbit serum, 24 hrs",0%
same,% cumulative survival,"Table 2, DHEA 1000 μg/mouse i.p. 1 hour before LPS + D-Gal, saline 10% rabbit serum, 48 hrs",0%
same,% cumulative survival,"Table 2, DHEA 1000 μg/mouse i.p. 1 hour before LPS + D-Gal, saline 10% rabbit serum, 72 hrs",0%
same,% cumulative survival,"Table 2, DHEA 1000 μg/mouse i.p. 1 hour before LPS + D-Gal, saline 10% rabbit serum, 96 hrs",0%
same,% cumulative survival,"Table 2, DHEA 1500 μg/mouse i.p. 1 hour before LPS + D-Gal, saline 10% rabbit serum, 24 hrs",40%
same,% cumulative survival,"Table 2, DHEA 1500 μg/mouse i.p. 1 hour before LPS + D-Gal, saline 10% rabbit serum, 48 hrs",40%
same,% cumulative survival,"Table 2, DHEA 1500 μg/mouse i.p. 1 hour before LPS + D-Gal, saline 10% rabbit serum, 72 hrs",20%
same,% cumulative survival,"Table 2, DHEA 1500 μg/mouse i.p. 1 hour before LPS + D-Gal, saline 10% rabbit serum, 96 hrs",20%
same,% cumulative survival,"Table 4, DHEA 250 μg single injection at time 0 i.p., NaCl 10% PLE, 24 hr",40%
same,% cumulative survival,"Table 4, DHEA 250 μg single injection at time 0 i.p., NaCl 10% PLE, 48 hr",30%
same,% cumulative survival,"Table 4, DHEA 250 μg single injection at time 0 i.p., NaCl 10% PLE, 72 hr",30%
same,% cumulative survival,"Table 4, DHEA 250 μg single injection at time 0 i.p., NaCl 10% PLE, 96 hr",30%
same,% cumulative survival,"Table 4, DHEA 250 μg single injection at time 0 i.p., NaCl 10% RS, 24 hr",30%
same,% cumulative survival,"Table 4, DHEA 250 μg single injection at time 0 i.p., NaCl 10% RS, 48 hr",30%
same,% cumulative survival,"Table 4, DHEA 250 μg single injection at time 0 i.p., NaCl 10% RS, 72 hr",30%
same,% cumulative survival,"Table 4, DHEA 250 μg single injection at time 0 i.p., NaCl 10% RS, 96 hr",30%
same,% cumulative survival,"Table 5 group D, DHEA 250 μg single injection at time 0 i.p., NaCl 10% PLE, 24 hrs, 1st exp.",40%
same,% cumulative survival,"Table 5 group D, DHEA 250 μg single injection at time 0 i.p., NaCl 10% PLE, 48 hrs, 1st exp.",30%
same,% cumulative survival,"Table 5 group D, DHEA 250 μg single injection at time 0 i.p., NaCl 10% PLE, 72 hrs, 1st exp.",30%
same,% cumulative survival,"Table 5 group D, DHEA 250 μg single injection at time 0 i.p., NaCl 10% PLE, 96 hrs, 1st exp.",30%
same,% cumulative survival,"Table 5 group E, DHEA 62.5 μg x4 at time 0, 3, 6 and 24 hours i.p., NaCl 10% PLE, 24 hrs, 1st exp.",40%
same,% cumulative survival,"Table 5 group E, DHEA 62.5 μg x4 at time 0, 3, 6 and 24 hours i.p., NaCl 10% PLE, 24 hrs, 2nd exp.",40%
same,% cumulative survival,"Table 5 group E, DHEA 62.5 μg x4 at time 0, 3, 6 and 24 hours i.p., NaCl 10% PLE, 48 hrs, 1st exp.",40%
same,% cumulative survival,"Table 5 group E, DHEA 62.5 μg x4 at time 0, 3, 6 and 24 hours i.p., NaCl 10% PLE, 48 hrs, 2nd exp.",40%
same,% cumulative survival,"Table 5 group E, DHEA 62.5 μg x4 at time 0, 3, 6 and 24 hours i.p., NaCl 10% PLE, 72 hrs, 1st exp.",40%
same,% cumulative survival,"Table 5 group E, DHEA 62.5 μg x4 at time 0, 3, 6 and 24 hours i.p., NaCl 10% PLE, 72 hrs, 2nd exp.",40%
same,% cumulative survival,"Table 5 group E, DHEA 62.5 μg x4 at time 0, 3, 6 and 24 hours i.p., NaCl 10% PLE, 96 hrs, 1st exp.",40%
same,% cumulative survival,"Table 5 group E, DHEA 62.5 μg x4 at time 0, 3, 6 and 24 hours i.p., NaCl 10% PLE, 96 hrs, 2nd exp.",40%
same,protection from death (survival),"at least 1.500 μg/mouse DHEA, 1 hour before LPS+D-Galactosamine",70%
